Assay results reported in the OligoGym collection.
Values joined by “and” are separate entries in the source; they are usually repeats but may differ in a detail not shown here. Equal entries are not always repeated. After the bases stand the sugars from the 5' end (letter, count) and the backbone: PS all phosphorothioate, else s phosphorothioate and o phosphodiester by linkage. Methylation of C is not given here. e = 2'-O-(2-methoxyethyl) (MOE); d = 2'-deoxy (DNA)

Target: DGAT2
Conditions: ASO

AAATAACCCACAGACACCCA (sugars e5 d10 e5, PS)
target mRNA inhibition (HepG2, 0.12 µM): 10% | target mRNA inhibition (HepG2, 2.5 µM): 52% and 50% and 46% | target mRNA inhibition (HepG2, 10 µM): 96% and 85% | target mRNA inhibition (HepG2, 20 µM): 97%

AACCACAGCGATAATCACAC (sugars e5 d10 e5, PS)
target mRNA inhibition (HepG2, 2.5 µM): 66% | target mRNA inhibition (HepG2, 10 µM): 91%

AAGATATAGTTCCTGGTGGT (sugars e5 d10 e5, PS)
target mRNA inhibition (HepG2, 0.12 µM): 41%

AAGGAAAACTTAGGCATGCT (sugars e5 d10 e5, PS)
target mRNA inhibition (HepG2, 2.5 µM): 63% | target mRNA inhibition (HepG2, 10 µM): 80%

AAGGAGTTTGTGTTTCCCAT (sugars e5 d10 e5, PS)
target mRNA inhibition (HepG2, 2.5 µM): 71% and 65% | target mRNA inhibition (HepG2, 10 µM): 91% and 85%

AAGGCCGTATGCCTGGGAAC (sugars e5 d10 e5, PS)
target mRNA inhibition (HepG2, 0.12 µM): 25%

AATAGTCTATGGTGTCCCGG (sugars e5 d10 e5, PS)
target mRNA inhibition (HepG2, 0.12 µM): 63%

AATCCAACCCTTGTCACTCT (sugars e5 d10 e5, PS)
target mRNA inhibition (HepG2, 2.5 µM): 33% | target mRNA inhibition (HepG2, 10 µM): 94%

AATCTGTGTGACCTTGGGCA (sugars e5 d10 e5, PS)
target mRNA inhibition (HepG2, 2.5 µM): 87% and 82% | target mRNA inhibition (HepG2, 10 µM): 84% and 93%

AATGGAGTGACAGGGCAGGA (sugars e5 d10 e5, PS)
target mRNA inhibition (HepG2, 2.5 µM): 54% | target mRNA inhibition (HepG2, 10 µM): 81%

AATGGGAATGGTATCGCACT (sugars e5 d10 e5, PS)
target mRNA inhibition (HepG2, 2.5 µM): 58% | target mRNA inhibition (HepG2, 10 µM): 89%

ACAAAGTCTATCAGGATGCA (sugars e5 d10 e5, PS)
target mRNA inhibition (HepG2, 2.5 µM): 53% | target mRNA inhibition (HepG2, 10 µM): 91%

ACAACTCTCTTGTTGGGAGG (sugars e5 d10 e5, PS)
target mRNA inhibition (HepG2, 2.5 µM): 64% | target mRNA inhibition (HepG2, 10 µM): 84%

ACAATTCCTGGATAACAAGG (sugars e5 d10 e5, PS)
target mRNA inhibition (HepG2, 0.12 µM): 41%

ACAGAAAAGTGAGGCTTGGG (sugars e5 d10 e5, PS)
target mRNA inhibition (HepG2, 0.12 µM): 40%

ACAGGAAGCCTGGTGACTGC (sugars e5 d10 e5, PS)
target mRNA inhibition (HepG2, 0.12 µM): 54%

ACAGGGCAGATACCTCCAGA (sugars e5 d10 e5, PS)
target mRNA inhibition (HepG2, 0.12 µM): 58%

ACCACAGCGATAATCAC (sugars e3 d10 e4, PS)
target mRNA inhibition (HepG2, 2.5 µM): 50% | target mRNA inhibition (HepG2, 10 µM): 75%

ACCAGCCAGGCCCAGACCCA (sugars e5 d10 e5, PS)
target mRNA inhibition (HepG2, 2.5 µM): 21% | target mRNA inhibition (HepG2, 10 µM): 43%

ACCAGCTGCAAGGATGACCT (sugars e5 d10 e5, PS)
target mRNA inhibition (HepG2, 0.12 µM): 49%

ACCCACTGGAGCACTGAGAT (sugars e2 d13 e5, PS)
target mRNA inhibition (HepG2, 0.12 µM): 52%

ACCCAGAGATGGTGATAAGG (sugars e5 d10 e5, PS)
target mRNA inhibition (HepG2, 0.12 µM): 53%

ACCCATCGGCCCCAGGAGCC (sugars e5 d10 e5, PS)
target mRNA inhibition (HepG2, 0.12 µM): 59%

ACCTGGGTTTTTGTGTATTC (sugars e5 d10 e5, PS)
target mRNA inhibition (HepG2, 2.5 µM): 86% and 87% | target mRNA inhibition (HepG2, 10 µM): 86% and 90%

ACTTCATTCTCTCCAAAGGA (sugars e5 d10 e5, PS)
target mRNA inhibition (HepG2, 0.12 µM): 45%

AGAAAAACCAGTTACTCCAC (sugars e5 d10 e5, PS)
target mRNA inhibition (HepG2, 0.12 µM): 4%

AGAAGGCACCCAGGCCCATG (sugars e5 d10 e5, PS)
target mRNA inhibition (HepG2, 0.12 µM): 38%

AGAGCACAGCGATGAGCCAG (sugars e5 d10 e5, PS)
target mRNA inhibition (HepG2, 2.5 µM): 52% | target mRNA inhibition (HepG2, 10 µM): 85%

AGAGCCAGCACACAGCTATG (sugars e5 d10 e5, PS)
target mRNA inhibition (HepG2, 0.12 µM): 20%

AGAGCTTCACCAGGGCCTCC (sugars e5 d10 e5, PS)
target mRNA inhibition (HepG2, 0.12 µM): 46%

AGATGCCACTTCATCAAGGC (sugars e5 d10 e5, PS)
target mRNA inhibition (HepG2, 0.12 µM): 24%

AGCAGGTTGTGTGTCTTCAC (sugars e5 d10 e5, PS)
target mRNA inhibition (HepG2, 0.12 µM): 55% and 77% | target mRNA inhibition (HepG2, 2.5 µM): 0%

AGCAGTCTGCCTGATTCCCT (sugars e5 d10 e5, PS)
target mRNA inhibition (HepG2, 2.5 µM): 69% and 44% | target mRNA inhibition (HepG2, 10 µM): 87% and 82%

AGCCAGGTAAGGCCGTATGC (sugars e2 d13 e5, PS)
target mRNA inhibition (HepG2, 0.12 µM): 67%

AGCCTGGACAAGTCCTGCCC (sugars e2 d13 e5, PS)
target mRNA inhibition (HepG2, 0.12 µM): 75%

AGCCTGGACAAGTCCTGCCC (sugars e5 d10 e5, PS)
target mRNA inhibition (HepG2, 0.12 µM): 79% | target mRNA inhibition (HepG2, 20 µM): 79% and 92% and 91%

AGGAAAACTTAGGCATGCTT (sugars e5 d10 e5, PS)
target mRNA inhibition (HepG2, 2.5 µM): 58% | target mRNA inhibition (HepG2, 10 µM): 84%

AGGAAGGACAGGACCCACTG (sugars e5 d10 e5, PS)
target mRNA inhibition (HepG2, 0.12 µM): 38%

AGGACACCTGGAGCTGCGGC (sugars e5 d10 e5, PS)
target mRNA inhibition (HepG2, 2.5 µM): 42% | target mRNA inhibition (HepG2, 10 µM): 84%

AGGACAGGGCAGACACACCT (sugars e5 d10 e5, PS)
target mRNA inhibition (HepG2, 0.12 µM): 44%

AGGACCCACTGGAGCACTGA (sugars e2 d13 e5, PS)
target mRNA inhibition (HepG2, 0.12 µM): 75%

AGGACCCCGGAGTAGGCGGC (sugars e5 d10 e5, PS)
target mRNA inhibition (HepG2, 0.12 µM): 52% and 76% | target mRNA inhibition (HepG2, 2.5 µM): 60% | target mRNA inhibition (HepG2, 10 µM): 92%

AGGAGCCCTCCTCGAAGATC (sugars e5 d10 e5, PS)
target mRNA inhibition (HepG2, 0.12 µM): 31%

AGGCACAGAAAAGTGAGGCT (sugars e5 d10 e5, PS)
target mRNA inhibition (HepG2, 2.5 µM): 75% | target mRNA inhibition (HepG2, 10 µM): 67%
